The values below come from ChEMBL document CHEMBL4334512, “Rationally Designed, Conformationally Constrained Inverse Agonists of RORγt-Identification of a Potent, Selective Series with Biologic-Like in Vivo Efficacy” (J Med Chem, 2019).

A value given as a limit tells only on which side of the number the result lay.

The target in data set [1] is T1, Oxysterols receptor LXR-alpha (Homo sapiens, UniProt Q13133).
T1 sequence (Q13133 whole entry): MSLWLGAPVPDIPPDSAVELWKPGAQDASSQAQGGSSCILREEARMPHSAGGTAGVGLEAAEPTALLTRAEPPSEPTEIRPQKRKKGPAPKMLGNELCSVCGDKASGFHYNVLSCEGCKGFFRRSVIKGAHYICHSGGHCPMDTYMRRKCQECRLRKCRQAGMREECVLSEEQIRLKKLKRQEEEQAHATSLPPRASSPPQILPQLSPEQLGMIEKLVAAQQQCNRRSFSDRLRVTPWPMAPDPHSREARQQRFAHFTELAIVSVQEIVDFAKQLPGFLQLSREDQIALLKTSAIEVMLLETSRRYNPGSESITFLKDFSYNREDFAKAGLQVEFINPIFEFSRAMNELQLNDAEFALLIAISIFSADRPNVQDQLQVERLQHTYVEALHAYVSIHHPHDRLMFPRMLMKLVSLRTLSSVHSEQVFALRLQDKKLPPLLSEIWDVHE
Briefly: Activity at LXRalpha (unknown origin).

In data set [2] the target is T2, Nuclear receptor ROR-gamma (Homo sapiens, UniProt P51449).
T2 sequence (P51449 whole entry): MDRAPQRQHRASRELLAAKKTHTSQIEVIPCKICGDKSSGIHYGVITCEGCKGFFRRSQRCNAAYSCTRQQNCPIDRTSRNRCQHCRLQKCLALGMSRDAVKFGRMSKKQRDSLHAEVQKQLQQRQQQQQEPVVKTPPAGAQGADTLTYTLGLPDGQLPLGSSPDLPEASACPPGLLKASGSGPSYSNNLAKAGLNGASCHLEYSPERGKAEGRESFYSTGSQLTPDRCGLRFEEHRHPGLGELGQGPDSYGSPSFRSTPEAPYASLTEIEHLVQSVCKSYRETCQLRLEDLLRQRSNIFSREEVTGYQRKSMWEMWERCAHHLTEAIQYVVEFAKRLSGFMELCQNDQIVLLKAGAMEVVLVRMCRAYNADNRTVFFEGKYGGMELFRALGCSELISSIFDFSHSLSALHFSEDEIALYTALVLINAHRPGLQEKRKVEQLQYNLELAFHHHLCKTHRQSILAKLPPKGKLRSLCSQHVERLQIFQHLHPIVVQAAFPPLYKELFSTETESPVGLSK
In words: Inverse agonist activity at RORgammat in CD3 and CD28-stimulated human whole blood assessed as reduction in IL17A production incubated for 1 hr before CD3 and CD28 stimulation for 20 hrs by AlphaLISA method. Format: tissue-based. (In general: Alpha assays give light when donor and acceptor beads are brought close together.)

The target of data set [3] is T3, Nuclear receptor ROR-beta (Homo sapiens, UniProt Q92753).
T3 sequence (Q92753 whole entry): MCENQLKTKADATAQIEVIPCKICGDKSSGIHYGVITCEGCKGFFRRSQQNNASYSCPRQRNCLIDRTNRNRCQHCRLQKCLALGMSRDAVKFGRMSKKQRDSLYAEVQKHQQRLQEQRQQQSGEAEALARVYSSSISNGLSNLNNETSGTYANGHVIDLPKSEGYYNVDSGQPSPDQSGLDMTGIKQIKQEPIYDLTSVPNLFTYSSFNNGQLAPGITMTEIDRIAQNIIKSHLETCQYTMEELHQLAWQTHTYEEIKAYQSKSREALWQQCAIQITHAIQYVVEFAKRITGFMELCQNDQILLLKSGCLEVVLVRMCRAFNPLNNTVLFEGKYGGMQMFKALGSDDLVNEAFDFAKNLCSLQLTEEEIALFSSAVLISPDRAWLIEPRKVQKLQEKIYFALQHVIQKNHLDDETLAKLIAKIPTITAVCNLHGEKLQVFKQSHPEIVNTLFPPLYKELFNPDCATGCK
In words: Activity at RORbeta (unknown origin).

Data set [4] addresses T2, Nuclear receptor ROR-gamma. Briefly: Inverse agonist activity at full length human RORgammat expressed in human Jurkat cells assessed as inhibition of constitutive receptor activity incubated for 18 hrs by Gal4-Luc reporter gene assay. It is filed as cell-based. (A reporter such as luciferase makes a cellular process visible.)
Data set [5] addresses T4, Nuclear receptor subfamily 1 group I member 2 (Homo sapiens, UniProt O75469).
T4 sequence (O75469 whole entry): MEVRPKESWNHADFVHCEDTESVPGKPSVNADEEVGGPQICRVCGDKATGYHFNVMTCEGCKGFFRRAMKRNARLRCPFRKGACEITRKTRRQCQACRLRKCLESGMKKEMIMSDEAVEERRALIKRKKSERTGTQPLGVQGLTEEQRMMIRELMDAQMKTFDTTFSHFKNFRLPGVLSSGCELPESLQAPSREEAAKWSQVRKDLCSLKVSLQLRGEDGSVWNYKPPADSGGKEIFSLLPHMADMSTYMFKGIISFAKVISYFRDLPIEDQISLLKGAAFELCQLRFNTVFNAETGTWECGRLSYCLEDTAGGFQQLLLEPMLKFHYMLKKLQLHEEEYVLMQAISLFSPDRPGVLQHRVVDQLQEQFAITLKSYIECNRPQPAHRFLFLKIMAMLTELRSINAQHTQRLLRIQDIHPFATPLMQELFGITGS
In words: Activity at PXR (unknown origin).

Data set [6] in a line: Half life in rat liver microsomes. Format: ADME, Microsome. On the technique in general: Liver microsomes are vesicles of endoplasmic reticulum, rich in cytochrome P450 enzymes.
In data set [7] the target is T5, Oxysterols receptor LXR-beta (Homo sapiens, UniProt P55055).
T5 sequence (P55055 whole entry): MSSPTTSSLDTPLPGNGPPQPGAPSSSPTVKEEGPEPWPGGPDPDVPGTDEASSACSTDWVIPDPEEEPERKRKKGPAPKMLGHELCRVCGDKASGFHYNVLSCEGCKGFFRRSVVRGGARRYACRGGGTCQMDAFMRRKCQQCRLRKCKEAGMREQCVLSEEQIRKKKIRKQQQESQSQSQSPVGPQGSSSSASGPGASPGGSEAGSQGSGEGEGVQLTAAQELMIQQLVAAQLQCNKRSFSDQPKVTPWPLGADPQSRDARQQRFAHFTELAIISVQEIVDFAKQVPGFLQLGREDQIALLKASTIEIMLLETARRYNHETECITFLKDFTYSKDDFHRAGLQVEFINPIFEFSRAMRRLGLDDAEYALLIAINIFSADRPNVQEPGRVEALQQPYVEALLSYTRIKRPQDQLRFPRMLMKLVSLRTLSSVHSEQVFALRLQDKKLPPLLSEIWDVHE
Briefly: Activity at LXRbeta (unknown origin).

Data set [8] has as its target T6, Nuclear receptor ROR-alpha (Homo sapiens, UniProt P35398).
T6 sequence (P35398 whole entry): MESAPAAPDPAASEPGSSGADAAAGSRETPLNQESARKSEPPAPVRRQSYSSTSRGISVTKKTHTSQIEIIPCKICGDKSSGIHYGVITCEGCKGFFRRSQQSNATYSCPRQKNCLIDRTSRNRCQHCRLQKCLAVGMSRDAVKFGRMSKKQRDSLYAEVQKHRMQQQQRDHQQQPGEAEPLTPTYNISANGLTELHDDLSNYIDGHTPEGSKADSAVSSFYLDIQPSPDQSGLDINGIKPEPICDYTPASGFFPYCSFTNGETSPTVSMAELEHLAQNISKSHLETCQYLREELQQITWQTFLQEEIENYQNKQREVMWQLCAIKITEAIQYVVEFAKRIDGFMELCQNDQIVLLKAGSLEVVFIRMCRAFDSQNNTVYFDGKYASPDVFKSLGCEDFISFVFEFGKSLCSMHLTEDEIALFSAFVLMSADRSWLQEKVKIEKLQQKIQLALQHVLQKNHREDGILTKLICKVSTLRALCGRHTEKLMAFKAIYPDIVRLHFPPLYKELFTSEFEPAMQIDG
Briefly: Activity at RORalpha (unknown origin).

The nature of data set [9]: Half life in mouse liver microsomes. It is filed as ADME, Microsome.
Data set [10] in a line: Half life in human liver microsomes. Format: ADME, Microsome.
A short description of data set [11]: Unbound fraction in human serum. It is filed as ADME, cell-free.

As usually defined, the IC50 is the concentration that gives 50% inhibition. Usually EC50 stands for the concentration giving half of the maximal effect. Broadly, the half-life is the time in which the quantity being followed falls by half. Read a high half-life as slow decline. On to `O=C(O)[C@H]1CC[C@](F)(C(=O)N2CC[C@@]3(S(=O)(=O)c4ccc(F)cc4)c4ccc(C(F)(C(F)(F)F)C(F)(F)F)cc4CC[C@@H]23)CC1`, for which the IC50 in data set [1] is more than 10 µM; in data set [3] it was more than 10 µM; in data set [5], more than 40 µM; in [7] it was more than 10 µM; in [8] it was more than 10 µM. Moreover, the EC50 in data set [2] is 0.046 µM; in data set [4] it was 0.015 µM. Further, the half-life in data set [6], in data set [9] and in data set [10] was more than 2 h in each case.

As a reminder, the fraction unbound is free concentration divided by total concentration. Higher therefore signals weak binding. As to `CN1C[C@H]2N(C(=O)C3(O)CCS(=O)(=O)CC3)CC[C@@]2(S(=O)(=O)c2ccc(F)cc2)c2ccc(C(F)(C(F)(F)F)C(F)(F)F)cc21`, the IC50 in data set [1] is more than 10 µM; in data set [3], more than 10 µM; in [5], more than 40 µM; in data set [7], more than 10 µM; in [8], more than 10 µM. In addition, the EC50 was 0.083 µM in data set [2] and 0.02 µM in data set [4]. Further, the fraction unbound in data set [11] was 0.003. For the same molecule, the half-life was 1.4 h in [6], 0.433 h in data set [9] and more than 2 h in data set [10].
